Laboratory results as given in patent US6166033A, “2-carbonylthiazole derivatives and use of the same” (priority 1996, dated 2000).
Where a name gives a salt, the structure may show the parent alone.

Legend:
dopamine D4 receptor = settings: literature; cited from earlier work
schizophrenia = settings: clinical, literature, cited from earlier work
[1] = literature; cited from earlier work
human D4.2 receptor = molecular target: T1, human D4.2 receptor (Homo sapiens, UniProt P21917, DEL265-296); experiment: Dopamine D4 receptor binding test ([3H] spiperone); settings: human D4.2 receptor in CHO cell membrane; [3H] spiperone 0.5 nM; 2 hours at 27° C., pH 7.4
T1 construct: expressed in transfected cells; host or cells: Chinese hamster ovary (CHO) cells, membranes
T1 sequence (P21917 with tags, fused parts or gaps DEL265-296): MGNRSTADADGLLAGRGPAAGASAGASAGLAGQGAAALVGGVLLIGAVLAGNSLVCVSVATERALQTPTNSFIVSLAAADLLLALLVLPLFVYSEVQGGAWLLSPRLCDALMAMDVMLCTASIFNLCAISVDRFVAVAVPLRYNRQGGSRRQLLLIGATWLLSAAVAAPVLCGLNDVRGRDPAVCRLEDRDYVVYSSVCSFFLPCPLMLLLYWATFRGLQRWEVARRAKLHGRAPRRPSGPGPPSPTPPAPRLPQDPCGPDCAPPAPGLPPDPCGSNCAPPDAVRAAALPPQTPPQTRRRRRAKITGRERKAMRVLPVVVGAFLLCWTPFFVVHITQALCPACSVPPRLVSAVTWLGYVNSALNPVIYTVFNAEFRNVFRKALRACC
Procedure: 1. Dopamine D4 receptor binding test
Chinese hamster ovary (CHO) cell membrane, in which human D4.2 receptor was expressed, was used as a receptor sample.
[^3 H] Spiperone was used as a [^3 H]-labeled ligand.
The binding reaction using the [^3 H]-labeled ligand was carried out by the following method described in Eur. J. Pharmacol., 233, 173 (1993).
Human D4.2 receptor binding test: The CHO cell membrane, in which human D4.2 receptor has been expressed, [^3 H] spiperone (0.5 nM) and each test compound were allowed to undergo 2 hours of reaction at 27° C. in 50 mM Tris-HCl buffer (pH 7.4) containing 5 mM EDTA, 1.5 mM CaCl2, 5 mM KCl and 120 mM NaCl.
After completion of the reaction, the reaction solution was filtered by suction through a glass filter (GF/B), and radioactivity on the filter paper was measured using a liquid scintillation spectrometer.
The binding when the reaction was carried out in the presence of 10 μM haloperidol was defined as non-specific binding of [^3 H] spiperone, and the difference between total binding and non-specific binding was defined as specific binding. An inhibition curve was obtained by allowing a fixed concentration of [^3 H] spiperone to react with varied concentration of each compound to be tested under the aforementioned conditions, and the concentration of each test compound which inhibits 50% of the [^3 H] spiperone binding (IC50) was calculated from the inhibition curve, with the results shown in Table 3.

Dopamine D2 receptor = Dopamine D2 receptor (Rattus norvegicus, UniProt P61169); experiment: Dopamine D2 receptor binding test ([3H] raclopride); settings: rat striate body membrane; [3H] raclopride 1 nM; 1 hour at 25° C.
Dopamine D2 receptor, sequence (P61169 whole entry): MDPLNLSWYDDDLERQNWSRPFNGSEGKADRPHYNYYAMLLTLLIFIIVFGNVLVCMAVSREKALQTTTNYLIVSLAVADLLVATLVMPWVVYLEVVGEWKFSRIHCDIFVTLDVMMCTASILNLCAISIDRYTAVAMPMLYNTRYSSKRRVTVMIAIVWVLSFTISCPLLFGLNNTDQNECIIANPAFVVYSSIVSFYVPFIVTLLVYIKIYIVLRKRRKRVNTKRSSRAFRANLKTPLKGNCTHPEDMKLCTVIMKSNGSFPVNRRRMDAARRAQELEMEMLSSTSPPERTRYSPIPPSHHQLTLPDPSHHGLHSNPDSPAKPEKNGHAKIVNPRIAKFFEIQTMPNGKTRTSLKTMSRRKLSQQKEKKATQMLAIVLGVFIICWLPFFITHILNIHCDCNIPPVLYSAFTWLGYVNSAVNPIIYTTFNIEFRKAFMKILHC

Row | SMILES | IC50 (human D4.2 receptor) [nM] | IC50 (Dopamine D2 receptor) [nM] | affinity for dopamine D4 receptor relative to dopamine D2 receptor (dopamine D4 receptor) | efficacy in schizophrenia (schizophrenia) | extrapyramidal disorders (schizophrenia; unlike dopamine D2 receptor antagonists) | hemotoxicity [1]
1 | CN1CCN(C2=Nc3cc(Cl)ccc3Nc3ccccc32)CC1 [Clozapine] | – | – | higher than its affinity for dopamine D2 receptor | effective in drug-resistant schizophrenia and negative symptoms | causes less extrapyramidal disorders | generates a hemotoxin as agranulocytosis which resulted in certain mortal cases
2 | NC(=O)c1nc(-c2ccc(F)cc2)c(CCN2CCC(=Cc3ccc(F)cc3)CC2)s1 [Compound A-02] | 5.46 | ≥ 1000 | – | – | – | –
3 | CCOC(=O)c1nc(-c2ccc(F)cc2)c(CCN2CCC(=Cc3cccc(F)c3)CC2)s1 [Compound A-09, 2-ethoxycarbonyl-4-(4-fluorophenyl)-5-[2-[4-(3-fluorobenzylidene)piperidin-1-yl]ethyl]thiazole hydrochloride] | 13.9 | > 1000 | – | – | – | –
4 | NC(=O)c1nc(-c2ccc(F)cc2)c(CCN2CCC(=Cc3cccc(F)c3)CC2)s1 [Compound A-10, 2-carbamoyl-4-(4-fluorophenyl)-5-[2-[4-(3-fluorobenzylidene)piperidin-1-yl]ethyl]thiazole] | 4.53 | 559 | – | – | – | –
5 | O=C(O)c1nc(-c2ccc(F)cc2)c(CCN2CCC(=Cc3cccc(F)c3)CC2)s1 [Compound A-11, 2-carboxylic acid-4-(4-fluorophenyl)-5-[2-[4-(3-fluorobenzylidene)piperidin-1-yl]ethyl]thiazole potassium salt] | 10.5 | ≥ 1000 | – | – | – | –
6 | NC(=O)c1nc(-c2ccc(F)cc2)c(CCN2CCC(=Cc3ccccc3)CC2)s1 [Compound A-13] | 3.13 | 143 | – | – | – | –
7 | Cc1ccc(C=C2CCN(CCc3sc(C(N)=O)nc3-c3ccc(F)cc3)CC2)cc1 [Compound A-15] | 18.3 | 433 | – | – | – | –

Second part, led by results:

Row | IC50 (human D4.2 receptor) [nM] | IC50 (Dopamine D2 receptor) [nM] | SMILES | affinity for dopamine D4 receptor relative to dopamine D2 receptor (dopamine D4 receptor) | efficacy in schizophrenia (schizophrenia) | extrapyramidal disorders (schizophrenia; unlike dopamine D2 receptor antagonists) | hemotoxicity [1]
8 | 5.99 | 628 | NC(=O)c1nc(-c2ccccc2)c(CCN2CCC(=Cc3ccc(F)cc3)CC2)s1 [Compound A-17] | – | – | – | –
9 | 9.55 | 187 | Cc1ccc(-c2nc(C(N)=O)sc2CCN2CCC(=Cc3ccc(F)cc3)CC2)cc1 [Compound A-20] | – | – | – | –
10 | 3.43 | > 1000 | CCOC(=O)c1nc(-c2ccc(F)cc2)c(CCN2CCC(C(=O)c3ccc(F)cc3)CC2)s1 [Compound A-21] | – | – | – | –
11 | 3.13 | 72.2 | NC(=O)c1nc(-c2ccc(F)cc2)c(CCN2CCC(C(=O)c3ccc(F)cc3)CC2)s1 [Compound A-22] | – | – | – | –
